pKd, pKi: −log10 of the molar value. Where “and” joins values, the source holds several entries; their conditions need not be identical. Equal entries are not always repeated.
Key:
[1] = target: VMAT2 (Rattus norvegicus, UniProt Q01827); experiment: Competition for [3H](±)TBZ binding in rat striatal homogenates; design: The basal forebrain regions of rat and mouse brains were then dissected; from tissue; host or cells: rat striatum / basal forebrain homogenate; conditions: [3H](±)-TBZ, Kd […] used for calculation
[2] = target: VMAT2 (Mus musculus, UniProt Q8BRU6); experiment: Saturation binding of 18F ligands in mouse striatal homogenates; design: The basal forebrain regions of rat and mouse brains were then dissected; from tissue; host or cells: mouse striatal homogenate; mouse brain coronal sections; conditions: estimated based on S.A.=2000 Ci/mmole
Description: The basal forebrain regions of rat and mouse brains were then dissected. The tissue homogenates were prepared in 50 mM Hepes, pH 7.5 and 0.3 M sucrose. The specific binding of ^3H or ^18F ligands were determined following the procedures described (Scherman D, Raisman R, Ploska A, Agid Y., [^3H]Dihydrotetrabenazine, a new in vitro monoaminergic probe for human brain, J. Neurochem., 1988:50:1131-36). Total volume of reaction for the assay was 0.2 ml. […] In saturation experiments, increasing concentrations of labeled ligand […] in 50 μl buffer were incubated with 100 μl of homogenates (100-250 μg). Incubation was carried out routinely at room temperature for 90 min. The samples were then filtered through glass fiber filters No. 25 (Schleicher and Schuell, Keene, N.H.) and the bound radioactivity was determined for ^18F in a gamma counter (Packard 5000) with 70% efficiency. Filters containing bound ^3H ligand were dissolved in 7 ml Ecolite(+) overnight and the radioactivity was counted next day in the scintillation counter (Beckman) with 65% counting efficiency. […] Nonspecific binding was determined in the presence of 10 μM tetrabenazine. Both saturation and competition experiments were analyzed using the nonlinear least-square curve fitting program LIGAND. […]

[3] = Biodistribution of [18F]6a and [18F]6b in normal mice (iv injection); type: in vivo, ICR mice
Description: While under isoflurane anesthesia, 0.15 mL of a 0.1% bovine serum albumin solution containing [^18F]tracers (10-20 μCi) were injected directly into the tail vein of ICR mice (22-25 g, male) The mice (n=3 for each time point) were sacrificed by cervical dislocation at indicated time points post injection. The organs of interest were removed and weighed, and the radioactivity was counted with an automatic gamma counter. The percentage dose per organ was calculated by a comparison of the tissue counts to suitably diluted aliquots of the injected material. Total activities of blood were calculated under the assumption that they were 7% of the total body weight. The % dose/g of samples was calculated by comparing the sample counts with the count of the diluted initial dose.

[4] = Partition coefficient 1-octanol/phosphate buffer; type: physicochemical; conditions: pH 7.4, 1-octanol and phosphate buffer
Description: Partition coefficients were measured by mixing the [^18F]tracer with 3 g each of 1-octanol and buffer (0.1 M phosphate, pH 7.4) in a test tube. The test tube was vortexed for 3 min at room temperature, followed by centrifugation for 5 min. Two weighed samples (0.5 g each) from the 1-octanol and buffer layers were counted in a well counter. The partition coefficient was determined by calculating the ratio of cpm/g of 1-octanol to that of buffer. Samples from the 1-octanol layer were re-partitioned until consistent partitions of coefficient values were obtained. Values are the mean±SEM of three independent experiments, each in duplicates.

VMAT2 (Mus musculus, UniProt Q8BRU6), sequence (Q8BRU6 whole entry): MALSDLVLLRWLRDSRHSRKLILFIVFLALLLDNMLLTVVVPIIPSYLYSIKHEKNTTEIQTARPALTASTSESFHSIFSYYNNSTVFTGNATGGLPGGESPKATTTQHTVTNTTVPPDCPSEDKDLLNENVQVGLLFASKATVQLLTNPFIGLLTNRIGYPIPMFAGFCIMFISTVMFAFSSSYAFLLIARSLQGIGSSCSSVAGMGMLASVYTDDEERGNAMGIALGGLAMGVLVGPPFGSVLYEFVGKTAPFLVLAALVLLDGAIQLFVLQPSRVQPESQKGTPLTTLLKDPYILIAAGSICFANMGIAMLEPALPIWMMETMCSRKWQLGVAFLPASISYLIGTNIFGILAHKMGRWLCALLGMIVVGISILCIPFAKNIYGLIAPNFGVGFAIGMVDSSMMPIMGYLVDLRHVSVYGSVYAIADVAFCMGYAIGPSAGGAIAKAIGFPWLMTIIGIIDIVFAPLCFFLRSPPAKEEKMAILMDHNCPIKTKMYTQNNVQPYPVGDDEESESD
VMAT2 (Rattus norvegicus, UniProt Q01827), sequence (Q01827 whole entry): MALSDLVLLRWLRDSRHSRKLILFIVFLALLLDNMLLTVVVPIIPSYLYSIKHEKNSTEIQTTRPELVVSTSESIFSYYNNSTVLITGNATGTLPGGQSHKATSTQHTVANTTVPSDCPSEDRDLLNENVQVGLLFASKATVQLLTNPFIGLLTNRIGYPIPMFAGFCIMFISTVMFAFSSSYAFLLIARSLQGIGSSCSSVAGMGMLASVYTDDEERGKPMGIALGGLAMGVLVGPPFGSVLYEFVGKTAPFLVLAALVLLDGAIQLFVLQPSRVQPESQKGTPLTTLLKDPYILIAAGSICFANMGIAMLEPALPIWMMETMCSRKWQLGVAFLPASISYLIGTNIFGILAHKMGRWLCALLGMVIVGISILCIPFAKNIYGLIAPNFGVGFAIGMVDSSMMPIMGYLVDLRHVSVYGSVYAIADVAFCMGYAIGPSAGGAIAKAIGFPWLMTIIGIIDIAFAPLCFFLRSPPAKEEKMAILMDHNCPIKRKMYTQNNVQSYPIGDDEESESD

## COc1cc2c(cc1OCCCF)CCN1CC(CC(C)C)C(O)CC21 (single isomer, unassigned) [FP-(−)-DTBZ]
[1]
  pKi: < 5.52

## COc1cc2c(cc1OCC[18F])CCN1CC(CC(C)C)C(O)CC21 (racemic) [[^18F]6a]
[2]
  pKd: 9.28
[3]; 30 min p.i., normal mice
  remaining in brain (brain washout): > 50%
[3]; mice, iv, 2 min
  brain uptake: 4.66 % ID/g
[3]; mice, iv, time not stated
  ST/CB ratio: 1.9
[3]; normal mice, iv, 2 min
  Organ distribution Blood: 2.68 ± 0.37 % dose/g
  Organ distribution Bone: 2.07 ± 0.05 % dose/g
  Organ distribution Brain: 4.66 % dose/g and 4.66 ± 0.78 % dose/g
  Organ distribution Heart: 4.49 ± 0.85 % dose/g
  Organ distribution Kidney: 10.7 ± 3.06 % dose/g
  Organ distribution Liver: 18.2 ± 4.14 % dose/g
  Organ distribution Lung: 5.83 ± 1.25 % dose/g
  Organ distribution Muscle: 0.66 ± 0.10 % dose/g
  Organ distribution Skin: 0.91 ± 0.10 % dose/g
  Organ distribution Spleen: 8.11 ± 0.90 % dose/g
  Ratio (vs CB) Cortex: 1.06
  Ratio (vs CB) Hippocampus: 1.09
  Ratio (vs CB) Striatum: 1.23
  Regional brain distribution Cerebellum (CB): 4.42 ± 0.74 % dose/g
  Regional brain distribution Cortex: 4.70 ± 0.66 % dose/g
  Regional brain distribution Hippocampus: 4.84 ± 0.72 % dose/g
  Regional brain distribution Striatum: 5.46 ± 0.80 % dose/g
[3]; normal mice, iv, 15 min
  Organ distribution Blood: 2.05 ± 0.17 % dose/g
  Organ distribution Bone: 2.40 ± 0.23 % dose/g
  Organ distribution Brain: 2.10 ± 0.25 % dose/g
  Organ distribution Heart: 1.99 ± 0.19 % dose/g
  Organ distribution Kidney: 5.51 ± 1.55 % dose/g
  Organ distribution Liver: 10.5 ± 1.48 % dose/g
  Organ distribution Lung: 2.96 ± 0.30 % dose/g
  Organ distribution Muscle: 1.01 ± 0.02 % dose/g
  Organ distribution Skin: 1.19 ± 0.03 % dose/g
  Organ distribution Spleen: 2.77 ± 0.33 % dose/g
  Ratio (vs CB) Cortex: 0.92
  Ratio (vs CB) Hippocampus: 1.18
  Ratio (vs CB) Striatum: 1.91
  Regional brain distribution Cerebellum (CB): 1.97 ± 0.22 % dose/g
  Regional brain distribution Cortex: 1.82 ± 0.19 % dose/g
  Regional brain distribution Hippocampus: 2.33 ± 0.30 % dose/g
  Regional brain distribution Striatum: 3.76 ± 0.51 % dose/g
[3]; normal mice, iv, 30 min
  Organ distribution Blood: 2.27 ± 0.11 % dose/g
  Organ distribution Bone: 3.88 % dose/g and 3.88 ± 0.47 % dose/g
  Organ distribution Brain: 2.09 ± 0.09 % dose/g
  Organ distribution Heart: 2.14 ± 0.11 % dose/g
  Organ distribution Kidney: 4.18 ± 0.33 % dose/g
  Organ distribution Liver: 8.85 ± 1.34 % dose/g
  Organ distribution Lung: 2.83 ± 0.25 % dose/g
  Organ distribution Muscle: 1.52 ± 0.07 % dose/g
  Organ distribution Skin: 1.72 ± 0.11 % dose/g
  Organ distribution Spleen: 2.62 ± 0.20 % dose/g
  Ratio (vs CB) Cortex: 1.00
  Ratio (vs CB) Hippocampus: 1.03
  Ratio (vs CB) Striatum: 1.71
  Regional brain distribution Cerebellum (CB): 1.97 ± 0.14 % dose/g
  Regional brain distribution Cortex: 1.96 ± 0.14 % dose/g
  Regional brain distribution Hippocampus: 2.02 ± 0.10 % dose/g
  Regional brain distribution Striatum: 3.37 ± 0.06 % dose/g
[3]; normal mice, iv, 1 hr
  Organ distribution Blood: 1.75 ± 0.16 % dose/g
  Organ distribution Bone: 5.84 ± 1.42 % dose/g
  Organ distribution Brain: 1.51 ± 0.20 % dose/g
  Organ distribution Heart: 1.53 ± 0.15 % dose/g
  Organ distribution Kidney: 2.27 ± 0.39 % dose/g
  Organ distribution Liver: 3.88 ± 0.40 % dose/g
  Organ distribution Lung: 1.74 ± 0.04 % dose/g
  Organ distribution Muscle: 1.05 ± 0.03 % dose/g
  Organ distribution Skin: 1.23 ± 0.06 % dose/g
  Organ distribution Spleen: 1.56 ± 0.07 % dose/g
  Ratio (vs CB) Cortex: 1.12
  Ratio (vs CB) Hippocampus: 1.05
  Ratio (vs CB) Striatum: 1.71
  Regional brain distribution Cerebellum (CB): 1.85 ± 0.20 % dose/g
  Regional brain distribution Cortex: 2.07 ± 0.42 % dose/g
  Regional brain distribution Hippocampus: 1.95 ± 0.49 % dose/g
  Regional brain distribution Striatum: 3.17 ± 0.79 % dose/g
[3]; normal mice, iv, 2 hr
  Organ distribution Blood: 1.38 ± 0.20 % dose/g
  Organ distribution Bone: 8.89 ± 0.75 % dose/g
  Organ distribution Brain: 1.13 ± 0.10 % dose/g
  Organ distribution Heart: 1.22 ± 0.13 % dose/g
  Organ distribution Kidney: 1.40 ± 0.30 % dose/g
  Organ distribution Liver: 3.36 ± 0.32 % dose/g
  Organ distribution Lung: 1.29 ± 0.19 % dose/g
  Organ distribution Muscle: 0.73 ± 0.13 % dose/g
  Organ distribution Skin: 0.85 ± 0.10 % dose/g
  Organ distribution Spleen: 1.06 ± 0.10 % dose/g
  Ratio (vs CB) Cortex: 0.81
  Ratio (vs CB) Hippocampus: 1.12
  Ratio (vs CB) Striatum: 1.28
  Regional brain distribution Cerebellum (CB): 1.09 ± 0.03 % dose/g
  Regional brain distribution Cortex: 0.88 ± 0.21 % dose/g
  Regional brain distribution Hippocampus: 1.22 ± 0.18 % dose/g
  Regional brain distribution Striatum: 1.39 ± 0.03 % dose/g
[4]
  logD at 3 min: 2.12
